Measured values reported in the NIST ThermoML archive (doi:10.1016/j.jct.2016.03.035).
Where “and” joins values, the source holds several entries; their conditions need not be identical. Equal values may be shown once.

Assay: xn = mol fraction of the nth substance listed
Details: Gas, Buoyancy - hydrostatic balance with magnetic suspension - two sinkers

C [methane] + CCC
Details | mass density
248.15 K, 96.6 kPa, x1 = 0.2658 | 1.7468 kg/m3
248.15 K, 120.09 kPa, x1 = 0.5069 | 1.764 kg/m3 and 1.7641 kg/m3 and 1.7642 kg/m3
248.15 K, 141.7 kPa, x1 = 0.2658 | 2.5863 kg/m3 and 2.5861 kg/m3 and 2.5862 kg/m3
248.15 K, 183.4 kPa, x1 = 0.5069 | 2.7166 kg/m3 and 2.7162 kg/m3 and 2.7167 kg/m3
248.15 K, 184.56 kPa, x1 = 0.2658 | 3.3989 kg/m3 and 3.3987 kg/m3
248.15 K, 220.8 kPa, x1 = 0.2658 | 4.0983 kg/m3 and 4.0981 kg/m3 and 4.0981 kg/m3
248.15 K, 244.4 kPa, x1 = 0.5069 | 3.6494 kg/m3 and 3.6497 kg/m3 and 3.6499 kg/m3
248.15 K, 251.13 kPa, x1 = 0.2658 | 4.6927 kg/m3 and 4.6924 kg/m3 and 4.6926 kg/m3
248.15 K, 271.98 kPa, x1 = 0.2658 | 5.1061 kg/m3
248.15 K, 271.99 kPa, x1 = 0.2658 | 5.1059 kg/m3
248.15 K, 275.99 kPa, x1 = 0.2658 | 5.186 kg/m3 and 5.1858 kg/m3 and 5.1858 kg/m3
248.15 K, 303.31 kPa, x1 = 0.5069 | 4.5661 kg/m3 and 4.566 kg/m3 and 4.5662 kg/m3
248.15 K, 360.5 kPa, x1 = 0.5069 | 5.4703 kg/m3 and 5.4702 kg/m3 and 5.4702 kg/m3
248.15 K, 424.87 kPa, x1 = 0.5069 | 6.5058 kg/m3 and 6.5052 kg/m3 and 6.5054 kg/m3
248.16 K, 96.6 kPa, x1 = 0.2658 | 1.7471 kg/m3 and 1.747 kg/m3
248.16 K, 390.03 kPa, x1 = 0.7498 | 4.4827 kg/m3
248.16 K, 390.04 kPa, x1 = 0.7498 | 4.4825 kg/m3 and 4.4826 kg/m3
248.16 K, 500.33 kPa, x1 = 0.7498 | 5.7987 kg/m3 and 5.7985 kg/m3 and 5.7986 kg/m3
248.16 K, 580.7 kPa, x1 = 0.7498 | 6.7716 kg/m3 and 6.7717 kg/m3
248.16 K, 685.07 kPa, x1 = 0.7498 | 8.055 kg/m3 and 8.0552 kg/m3
248.16 K, 786.23 kPa, x1 = 0.7498 | 9.3205 kg/m3
248.16 K, 786.24 kPa, x1 = 0.7498 | 9.3204 kg/m3 and 9.3205 kg/m3
248.16 K, 835.59 kPa, x1 = 0.7498 | 9.9462 kg/m3
248.16 K, 835.6 kPa, x1 = 0.7498 | 9.946 kg/m3 and 9.9461 kg/m3
248.16 K, 859.93 kPa, x1 = 0.7498 | 10.2556 kg/m3
248.16 K, 859.95 kPa, x1 = 0.7498 | 10.2561 kg/m3 and 10.2559 kg/m3
248.16 K, 884.03 kPa, x1 = 0.7498 | 10.5636 kg/m3 and 10.5634 kg/m3 and 10.5637 kg/m3
248.17 K, 276.07 kPa, x1 = 0.7498 | 3.1457 kg/m3
248.17 K, 276.08 kPa, x1 = 0.7498 | 3.1457 kg/m3 and 3.1455 kg/m3
273.14 K, 124.74 kPa, x1 = 0.5069 | 1.6598 kg/m3 and 1.6598 kg/m3
273.14 K, 258.4 kPa, x1 = 0.5069 | 3.4826 kg/m3
273.15 K, 124.75 kPa, x1 = 0.5069 | 1.6598 kg/m3
273.15 K, 167.48 kPa, x1 = 0.2658 | 2.7681 kg/m3 and 2.7679 kg/m3
273.15 K, 167.49 kPa, x1 = 0.2658 | 2.7677 kg/m3
273.15 K, 218.01 kPa, x1 = 0.5069 | 2.9256 kg/m3
273.15 K, 218.04 kPa, x1 = 0.5069 | 2.9262 kg/m3
273.15 K, 218.06 kPa, x1 = 0.5069 | 2.9265 kg/m3
273.15 K, 242.18 kPa, x1 = 0.2658 | 4.0482 kg/m3 and 4.0482 kg/m3
273.15 K, 258.4 kPa, x1 = 0.5069 | 3.4831 kg/m3
273.15 K, 258.41 kPa, x1 = 0.5069 | 3.4831 kg/m3
273.15 K, 262.29 kPa, x1 = 0.5069 | 3.5352 kg/m3
273.15 K, 269.26 kPa, x1 = 0.5069 | 3.6315 kg/m3
273.15 K, 277.28 kPa, x1 = 0.5069 | 3.7427 kg/m3
273.15 K, 309 kPa, x1 = 0.5069 | 4.1836 kg/m3
273.15 K, 316.31 kPa, x1 = 0.5069 | 4.2857 kg/m3
273.15 K, 321.34 kPa, x1 = 0.5069 | 4.3577 kg/m3 and 4.3576 kg/m3
273.15 K, 321.35 kPa, x1 = 0.5069 | 4.3574 kg/m3
273.15 K, 323.08 kPa, x1 = 0.5069 | 4.3804 kg/m3
273.15 K, 340.33 kPa, x1 = 0.5069 | 4.6223 kg/m3
273.15 K, 340.34 kPa, x1 = 0.5069 | 4.6226 kg/m3
273.15 K, 340.36 kPa, x1 = 0.5069 | 4.6229 kg/m3
273.15 K, 344.34 kPa, x1 = 0.2658 | 5.85 kg/m3 and 5.8499 kg/m3 and 5.85 kg/m3
273.15 K, 401.7 kPa, x1 = 0.2658 | 6.8907 kg/m3 and 6.8903 kg/m3
273.15 K, 401.71 kPa, x1 = 0.2658 | 6.8904 kg/m3
273.15 K, 402.73 kPa, x1 = 0.5069 | 5.504 kg/m3
273.15 K, 406.4 kPa, x1 = 0.2658 | 6.9763 kg/m3
273.15 K, 406.45 kPa, x1 = 0.2658 | 6.9765 kg/m3 and 6.9764 kg/m3
273.15 K, 409.05 kPa, x1 = 0.5069 | 5.5939 kg/m3
273.15 K, 415.33 kPa, x1 = 0.5069 | 5.6832 kg/m3
273.15 K, 430.79 kPa, x1 = 0.2658 | 7.4249 kg/m3
273.15 K, 430.8 kPa, x1 = 0.2658 | 7.4251 kg/m3
273.15 K, 441.05 kPa, x1 = 0.5069 | 6.0518 kg/m3
273.15 K, 441.3 kPa, x1 = 0.5069 | 6.0554 kg/m3
273.15 K, 441.54 kPa, x1 = 0.5069 | 6.0588 kg/m3
273.15 K, 453.5 kPa, x1 = 0.5069 | 6.23 kg/m3
273.15 K, 453.52 kPa, x1 = 0.5069 | 6.23 kg/m3
273.15 K, 453.54 kPa, x1 = 0.5069 | 6.2304 kg/m3
273.15 K, 486.09 kPa, x1 = 0.2658 | 8.458 kg/m3 and 8.4582 kg/m3
273.15 K, 486.1 kPa, x1 = 0.2658 | 8.4581 kg/m3
273.15 K, 491.06 kPa, x1 = 0.5069 | 6.7718 kg/m3
273.15 K, 491.73 kPa, x1 = 0.2658 | 8.5643 kg/m3 and 8.5641 kg/m3 and 8.564 kg/m3
273.15 K, 497.16 kPa, x1 = 0.5069 | 6.8601 kg/m3
273.15 K, 500.88 kPa, x1 = 0.7498 | 5.2229 kg/m3
273.15 K, 500.89 kPa, x1 = 0.7498 | 5.2229 kg/m3
273.15 K, 503.23 kPa, x1 = 0.5069 | 6.9481 kg/m3
273.15 K, 506.92 kPa, x1 = 0.5069 | 7.0016 kg/m3
273.15 K, 506.93 kPa, x1 = 0.5069 | 7.0019 kg/m3
273.15 K, 506.95 kPa, x1 = 0.5069 | 7.0022 kg/m3
273.15 K, 537.7 kPa, x1 = 0.2658 | 9.4418 kg/m3 and 9.4416 kg/m3
273.15 K, 537.71 kPa, x1 = 0.2658 | 9.4418 kg/m3
273.15 K, 554.75 kPa, x1 = 0.5069 | 7.701 kg/m3
273.15 K, 555.81 kPa, x1 = 0.5069 | 7.717 kg/m3
273.15 K, 556.85 kPa, x1 = 0.5069 | 7.7324 kg/m3
273.15 K, 562.21 kPa, x1 = 0.2658 | 9.9156 kg/m3 and 9.9157 kg/m3
273.15 K, 568.57 kPa, x1 = 0.2658 | 10.0393 kg/m3 and 10.0391 kg/m3
273.15 K, 607.74 kPa, x1 = 0.5069 | 8.4834 kg/m3
273.15 K, 607.75 kPa, x1 = 0.5069 | 8.4836 kg/m3
273.15 K, 607.76 kPa, x1 = 0.5069 | 8.484 kg/m3
273.15 K, 608.84 kPa, x1 = 0.2658 | 10.8308 kg/m3 and 10.8306 kg/m3
273.15 K, 611.36 kPa, x1 = 0.5069 | 8.5381 kg/m3
273.15 K, 612.13 kPa, x1 = 0.5069 | 8.5492 kg/m3
273.15 K, 612.89 kPa, x1 = 0.5069 | 8.5606 kg/m3
273.15 K, 615.59 kPa, x1 = 0.2658 | 10.9646 kg/m3 and 10.9644 kg/m3 and 10.9642 kg/m3
273.15 K, 619.26 kPa, x1 = 0.5069 | 8.6551 kg/m3
273.15 K, 625.49 kPa, x1 = 0.5069 | 8.7476 kg/m3
273.15 K, 631.66 kPa, x1 = 0.5069 | 8.8402 kg/m3
273.15 K, 652.39 kPa, x1 = 0.2658 | 11.7012 kg/m3
273.15 K, 652.4 kPa, x1 = 0.2658 | 11.7011 kg/m3
273.15 K, 659.32 kPa, x1 = 0.2658 | 11.841 kg/m3 and 11.8409 kg/m3 and 11.8406 kg/m3
273.15 K, 699.84 kPa, x1 = 0.5069 | 9.8667 kg/m3
273.15 K, 701.3 kPa, x1 = 0.5069 | 9.889 kg/m3
273.15 K, 701.31 kPa, x1 = 0.5069 | 9.8889 kg/m3
273.15 K, 701.32 kPa, x1 = 0.5069 | 9.8887 kg/m3
273.15 K, 705.89 kPa, x1 = 0.5069 | 9.9581 kg/m3
273.15 K, 711.37 kPa, x1 = 0.5069 | 10.0422 kg/m3
273.15 K, 711.71 kPa, x1 = 0.5069 | 10.0475 kg/m3
273.15 K, 711.89 kPa, x1 = 0.5069 | 10.0504 kg/m3
273.15 K, 712.05 kPa, x1 = 0.5069 | 10.0527 kg/m3
273.15 K, 776.08 kPa, x1 = 0.5069 | 11.034 kg/m3
273.15 K, 781.94 kPa, x1 = 0.5069 | 11.1239 kg/m3
273.15 K, 787.74 kPa, x1 = 0.5069 | 11.2144 kg/m3
273.15 K, 802.95 kPa, x1 = 0.5069 | 11.451 kg/m3
273.15 K, 803.19 kPa, x1 = 0.5069 | 11.4546 kg/m3
273.15 K, 803.43 kPa, x1 = 0.5069 | 11.4585 kg/m3
273.15 K, 829.51 kPa, x1 = 0.5069 | 11.8643 kg/m3
273.15 K, 829.52 kPa, x1 = 0.5069 | 11.8644 kg/m3 and 11.8643 kg/m3
273.15 K, 883.12 kPa, x1 = 0.5069 | 12.7095 kg/m3
273.15 K, 888.99 kPa, x1 = 0.5069 | 12.8025 kg/m3
273.15 K, 894.82 kPa, x1 = 0.5069 | 12.8951 kg/m3
273.15 K, 899.8 kPa, x1 = 0.7498 | 9.5967 kg/m3 and 9.5966 kg/m3
273.15 K, 899.82 kPa, x1 = 0.7498 | 9.5965 kg/m3
273.15 K, 907.75 kPa, x1 = 0.5069 | 13.1005 kg/m3
273.15 K, 907.76 kPa, x1 = 0.5069 | 13.1006 kg/m3
273.15 K, 929.46 kPa, x1 = 0.5069 | 13.4491 kg/m3
273.15 K, 930.26 kPa, x1 = 0.5069 | 13.4619 kg/m3
